Structures are written as SMILES. Peptide text beside a SMILES is read from it.

A short description of series [1]: water-solubility of the peptide. The class given is physicochemical. The text has this: This peptide is hydrophilic and its water-solubility is very good.
In series [2] the test system is intravascular thrombus. The series is described as follows: experimental thrombosis: intravascular thrombus induced by a specific lesion of the arterial wall, guineapig. The class given is in vivo. The note with it: direct intravenous injection. On the procedure: Experimental work on thrombosis carried out on two different animal species (rat and guineapig) have shown that the peptides according to the invention, in particular the peptides of the general formula […] (II), viz. particularly peptide […] (peptide 1) and peptide […] […] The type of thrombus which is thus induced takes into account the participation of the blood platelets against which the peptide exerts its activity but also the reactivity of the injured vascular wall.

Series [3] deals with intravascular thrombus. The series can be described thus: experimental thrombosis: intravascular thrombus induced by a specific lesion of the arterial wall, rat. The note with it: direct intravenous injection. The class given is in vivo. On the procedure: Experimental work on thrombosis carried out on two different animal species (rat and guineapig) have shown that the peptides according to the invention, in particular the peptides of the general formula […] (II), viz. particularly peptide […] (peptide 1) and peptide […] The type of thrombus which is thus induced takes into account the participation of the blood platelets against which the peptide exerts its activity but also the reactivity of the injured vascular wall. […] In the same experimental thrombosis system, when a peptide according to the invention is used, particularly a peptide of the formula […]

On to `N=C(N)NCCC[C@H](NC(=O)[C@@H](N)CCCCN)C(=O)N[C@@H](CC(=O)O)C(=O)N[C@@H](CO)C(=O)O` [peptide 1, Lys-Arg-Asp-Ser] (H-KRDS-OH), for which, in series [1], the water-solubility entry was “very good”.
Regarding `N=C(N)NCCC[C@H](NC(=O)[C@H](CC(=O)O)NC(=O)[C@H](CCCNC(=N)N)NC(=O)[C@@H](N)CCCCN)C(=O)O` [peptide 6, Lys-Arg-Asp-Arg] (H-KRDR-OH), the anti-thrombotic activity entry in the series on intravascular thrombus [2] and in the series on intravascular thrombus [3] was “exert an anti-thrombotic activity” throughout.

(Values after patent US4943562A, “Tetra- and pentapeptides containing the lysyl-arginyl-aspartyl sequence and their applications as medicines, particularly anti-thrombotic medicines” (Institut des Vaisseaux et du Sang, priority 1987, dated 1990).)
